By IC50 is commonly meant the concentration needed to halve the response being measured. A high value points to a need for much substance.

The subject of the assay is HIV in the HTLV-1 transformed cell line MT-4. As to the kind of experiment: organism not typed. It is filed as cell-based. Conditions: MT4, 96 h, MT-4 cells; luciferase/cell titer glo readout after 96 hours; 10 point dose response. (In general: ATP-based viability assays read luminescence as a measure of living cells.)
`Cc1ccc(-c2c(C)c3c(c(C)c2[C@H](OC(C)(C)C)C(=O)O)CN(C(=O)C2CCC(F)(F)C2)C3)cc1` (stereo partly drawn) [Example 113, (2S)-2-(tert-butoxy)-2-(2-(3,3-difluorocyclopentanecarbonyl)-4,7-dimethyl-6-(p-tolyl)isoindolin-5-yl)acetic acid] gave an IC50 of 10 nM.
With `COc1cccc(C(=O)N2Cc3c(C)c(-c4ccc(C)cc4)c([C@H](OC(C)(C)C)C(=O)O)c(C)c3C2)c1` [Example 114, (S)-2-(tert-butoxy)-2-(2-(3-methoxybenzoyl)-4,7-dimethyl-6-(p-tolyl)isoindolin-5-yl)acetic acid] the figure was 5 nM; with `Cc1ccc(-c2c(C)c3c(c(C)c2[C@H](OC(C)(C)C)C(=O)O)CN(C(=O)c2ccc(C)c(F)c2)C3)cc1` [Example 115, (S)-2-(tert-butoxy)-2-(2-(3-fluoro-4-methylbenzoyl)-4,7-dimethyl-6-(p-tolyl)isoindolin-5-yl)acetic acid], 6 nM; with `COC1CCC(C(=O)N2Cc3c(C)c(-c4ccc(C)cc4)c([C@H](OC(C)(C)C)C(=O)O)c(C)c3C2)CC1` (stereo partly drawn) [Example 116, (S)-2-(tert-butoxy)-2-(2-(4-methoxycyclohexanecarbonyl)-4,7-dimethyl-6-(p-tolyl)isoindolin-5-yl)acetic acid], 31 nM.
The figure for `Cc1ccc(-c2c(C)c3c(c(C)c2[C@H](OC(C)(C)C)C(=O)O)CN(C(=O)CC2CCCCC2)C3)cc1` [Example 117, (S)-2-(tert-butoxy)-2-(2-(2-cyclohexylacetyl)-4,7-dimethyl-6-(p-tolyl)isoindolin-5-yl)acetic acid] is 17 nM.
With `Cc1ccc(-c2c(C)c3c(c(C)c2[C@H](OC(C)(C)C)C(=O)O)CN(C(=O)C2CC4(CCC4)C2)C3)cc1` [Example 118, (S)-2-(tert-butoxy)-2-(4,7-dimethyl-2-(spiro[3.3]heptane-2-carbonyl)-6-(p-tolyl)isoindolin-5-yl)acetic acid] the figure was 14 nM; with `Cc1ccc(-c2c(C)c3c(c(C)c2[C@H](OC(C)(C)C)C(=O)O)CN(C(=O)c2cc(F)cc(F)c2)C3)cc1` [Example 119, (S)-2-(tert-butoxy)-2-(2-(3,5-difluorobenzoyl)-4,7-dimethyl-6-(p-tolyl)isoindolin-5-yl)acetic acid], 3 nM; with `Cc1ccc(-c2c(C)c3c(c(C)c2[C@H](OC(C)(C)C)C(=O)O)CN(C(=O)c2cccc(F)c2F)C3)cc1` [Example 120, (S)-2-(tert-butoxy)-2-(2-(2,3-difluorobenzoyl)-4,7-dimethyl-6-(p-tolyl)isoindolin-5-yl)acetic acid], 3 nM.
Compound `Cc1ccc(-c2c(C)c3c(c(C)c2[C@H](OC(C)(C)C)C(=O)O)CN(C(=O)c2cc(F)ccc2C)C3)cc1` [Example 121, (S)-2-(tert-butoxy)-2-(2-(5-fluoro-2-methylbenzoyl)-4,7-dimethyl-6-(p-tolyl)isoindolin-5-yl)acetic acid] gave an IC50 of 4 nM. The IC50 values of the last two compounds are within 1.5-fold of each other.
The figure for `COc1cc(F)cc(C(=O)N2Cc3c(C)c(-c4ccc(C)cc4)c([C@H](OC(C)(C)C)C(=O)O)c(C)c3C2)c1` [Example 122, (S)-2-(tert-butoxy)-2-(2-(3-fluoro-5-methoxybenzoyl)-4,7-dimethyl-6-(p-tolyl)isoindolin-5-yl)acetic acid] is 3 nM; for `Cc1ccc(-c2c(C)c3c(c(C)c2[C@H](OC(C)(C)C)C(=O)O)CN(C(=O)c2cc(C)cc(F)c2)C3)cc1` [Example 123, (S)-2-(tert-butoxy)-2-(2-(3-fluoro-5-methylbenzoyl)-4,7-dimethyl-6-(p-tolyl)isoindolin-5-yl)acetic acid] it is 4 nM; for `Cc1ccc(-c2c(C)c3c(c(C)c2[C@H](OC(C)(C)C)C(=O)O)CNC3)cc1` [Example 124, (S)-2-(tert-butoxy)-2-(4,7-dimethyl-6-(p-tolyl)isoindolin-5-yl)acetic acid] it is 1090 nM.
Take `Cc1ccc(-c2c(C)c3c(c(C)c2[C@H](OC(C)(C)C)C(=O)O)CN(Cc2cccc4c2OCCO4)C3)cc1` [Example 125, (S)-2-(tert-butoxy)-2-(2-((2,3-dihydrobenzo[b][1,4]dioxin-5-yl)methyl)-4,7-dimethyl-6-(p-tolyl)isoindolin-5-yl)acetic acid]: the IC50 came to 15 nM.
The figure for `Cc1ccc(-c2c(C)c3c(c(C)c2[C@H](OC(C)(C)C)C(=O)O)CN(C(=O)OC(C)(C)C)C3)cc1` [Example 126, (S)-2-(tert-butoxy)-2-(2-(tert-butoxycarbonyl)-4,7-dimethyl-6-(p-tolyl)isoindolin-5-yl)acetic acid] is 13 nM; for `Cc1ccc(-c2c(C)c3c(c(C)c2[C@H](OC(C)(C)C)C(=O)O)CN(CC(=O)N2CCCCC2)C3)cc1` [Example 127, (S)-2-(tert-butoxy)-2-(4,7-dimethyl-2-(2-oxo-2-(piperidin-1-yl)ethyl)-6-(p-tolyl)isoindolin-5-yl)acetic acid] it is 318 nM.
In turn, `Cc1ccc(-c2c(C)c3c(c(C)c2[C@H](OC(C)(C)C)C(=O)O)CN(C(=N)N2CCCCC2)C3)cc1` [Example 128, (S)-2-(tert-butoxy)-2-(2-(imino(piperidin-1-yl)methyl)-4,7-dimethyl-6-(p-tolyl)isoindolin-5-yl)acetic acid] displayed an IC50 of 8540 nM.
The figure for `Cc1ccc(-c2c(C)c3c(c(C)c2[C@H](OC(C)(C)C)C(=O)O)CN(C(=O)C(=O)N2CCCCC2)C3)cc1` [Example 129] is 14 nM.
For the compound `Cc1ccc(-c2c(C)c3c(c(C)c2[C@H](OC(C)(C)C)C(=O)O)CN(C(=O)C(=O)N2CCOC[C@H]2C)C3)cc1` [Example 130, (S)-2-(tert-butoxy)-2-(4,7-dimethyl-2-(2-((R)-3-methylmorpholino)-2-oxoacetyl)-6-(p-tolyl)isoindolin-5-yl)acetic acid], the 50% inhibitory concentration (IC50) turned out to be 41 nM.
In turn, `Cc1ccc(-c2c(C)c3c(c(C)c2[C@H](OC(C)(C)C)C(=O)O)CN(C(=S)N2CCCCC2)C3)cc1` [Example 131, (S)-2-(tert-butoxy)-2-(4,7-dimethyl-2-(piperidine-1-carbonothioyl)-6-(p-tolyl)isoindolin-5-yl)acetic acid] had an IC50 of 19 nM.
In the case of `Cc1c2c(c(C)c([C@H](OC(C)(C)C)C(=O)O)c1-c1ccc(Cl)cc1)CN(C(=O)N1CCCCC1)C2` [Example 132, (S)-2-(tert-butoxy)-2-(6-(4-chlorophenyl)-4,7-dimethyl-2-(piperidine-1-carbonyl)isoindolin-5-yl)acetic acid], it took 21 nM to reach half-maximal inhibition (IC50).
`Cc1c2c(c(C)c([C@H](OC(C)(C)C)C(=O)O)c1-c1ccc(Cl)cc1)CN(C(=O)C1CCCCC1)C2` [Example 134, (S)-2-(tert-butoxy)-2-(6-(4-chlorophenyl)-2-(cyclohexanecarbonyl)-4,7-dimethylisoindolin-5-yl)acetic acid] gave an IC50 of 6 nM. This IC50 lies about 3.5-fold lower than the previous one.
The compound `Cc1c2c(c(C)c([C@H](OC(C)(C)C)C(=O)O)c1-c1ccc(Cl)cc1)CN(C(=O)CC(C)(C)C)C2` [Example 135, (S)-2-(tert-butoxy)-2-(6-(4-chlorophenyl)-2-(3,3-dimethylbutanol)-4,7-dimethylisoindolin-5-yl)acetic acid] came in with an IC50 of 23 nM. Compared with the last compound, the IC50 is about 3.8-fold higher.
In the case of `Cc1ccc(F)cc1C(=O)N1Cc2c(C)c(-c3cc(F)c4c(c3C)CCCO4)c([C@H](OC(C)(C)C)C(=O)O)c(C)c2C1` [Example 136, (S)-2-(tert-butoxy)-2-((R)-2-(5-fluoro-2-methylbenzoyl)-6-(8-fluoro-5-methylchroman-6-yl)-4,7-dimethylisoindolin-5-yl)acetic acid], 2 nM corresponded to half-maximal inhibition (IC50).
The compound `COc1ccccc1C(=O)N1Cc2c(C)c(-c3ccc(C)cc3)c([C@H](OC(C)(C)C)C(=O)O)c(C)c2C1` [Example 163, (S)-2-(tert-butoxy)-2-(2-(2-methoxybenzoyl)-4,7-dimethyl-6-(p-tolyl)isoindolin-5-yl)acetic acid] gave an IC50 of 4 nM. This IC50 is about 2-fold higher than that of the compound before.
The figure for `Cc1ccc(-c2c(C)c3c(c(C)c2[C@H](OC(C)(C)C)C(=O)O)CN(C(=O)c2cccc4c2OCC4)C3)cc1` [Example 164, (S)-2-(tert-butoxy)-2-(2-(2,3-dihydrobenzofuran-7-carbonyl)-4,7-dimethyl-6-(p-tolyl)isoindolin-5-yl)acetic acid] is 4 nM; for `Cc1ccc(-c2c(C)c3c(c(C)c2[C@H](OC(C)(C)C)C(=O)O)CN(C(=O)c2cccc4c2ccn4C)C3)cc1` [Example 165, (S)-2-(tert-butoxy)-2-(4,7-dimethyl-2-(1-methyl-1H-indole-4-carbonyl)-6-(p-tolyl)isoindolin-5-yl)acetic acid] it is 108 nM.
As for `Cc1ccc(-c2c(C)c3c(c(C)c2[C@H](OC(C)(C)C)C(=O)O)CN(C(=O)c2cccc4sccc24)C3)cc1` [Example 166, (S)-2-(2-(benzo[b]thiophene-4-carbonyl)-4,7-dimethyl-6-(p-tolyl)isoindolin-5-yl)-2-(tert-butoxy)acetic acid], the IC50 came to 27 nM.
With `Cc1ccc(-c2c(C)c3c(c(C)c2[C@H](OC(C)(C)C)C(=O)O)CN(C(=O)c2cccc4ccoc24)C3)cc1` [Example 167, (S)-2-(2-(benzofuran-7-carbonyl)-4,7-dimethyl-6-(p-tolyl)isoindolin-5-yl)-2-(tert-butoxy)acetic acid] the figure was 4 nM; with `Cc1ccc(-c2c(C)c3c(c(C)c2[C@H](OC(C)(C)C)C(=O)O)CN(C(=O)c2ccccc2C)C3)cc1` [Example 219, (S)-2-(tert-butoxy)-2-(4,7-dimethyl-2-(2-methylbenzoyl)-6-(p-tolyl)isoindolin-5-yl)acetic acid], 4 nM.
`Cc1ccc(-c2c(C)c3c(c(C)c2[C@H](OC(C)(C)C)C(=O)O)CN(C(=O)c2cccc(Cl)c2)C3)cc1` [Example 220, (S)-2-(tert-butoxy)-2-(2-(3-chlorobenzoyl)-4,7-dimethyl-6-(p-tolyl)isoindolin-5-yl)acetic acid] showed an IC50 of 4 nM.
The compound `Cc1ccc(-c2c(C)c3c(c(C)c2[C@H](OC(C)(C)C)C(=O)O)CN(C(=O)c2cccc(F)c2C)C3)cc1` [Example 221, (S)-2-(tert-butoxy)-2-(2-(3-fluoro-2-methylbenzoyl)-4,7-dimethyl-6-(p-tolyl)isoindolin-5-yl)acetic acid] returned an IC50 of 4 nM.
